Key:
[1] = tested on: Staphylococcus aureus; assay: MIC of host defense peptides in liquid medium (microbroth dilution); type: cell-based; conditions: 37°C; for MIC values against S. aureus (range over strains): range over 16 strains, MHB pH 7.4, 18–24 h; for MIC: 18–24 h
Method: (§1) Experiments were carried out with a collection of 25 Listeria monocytogenes strains (Table 1) and 16 Staphylococcus aureus strains (Table 2) representing different lineages and serotypes (L. monocytogenes), spa types (S. aureus), and origins (food processing environment, food products, and human clinical isolates). Six L. monocytogenes strains were mutants of the EGD strain and were mutated in genes known to be involved in stress tolerance. The S. aureus collection comprised two deletion mutants, strains Sa113/ΔmprF [8] and Sa113/ΔdltA [7], known to be more sensitive to host defense peptides. Two of the S. aureus strains could not immediately be assigned to an existing spa type and we are in the process of acquiring the additional information that is needed to assign a new spa type to them. The strains were obtained from The National Institute of Aquatic Resources and The National Food Institute, Technical University of Denmark, Faculty of Life Sciences, University of Copenhagen, Denmark, Statens Serum Institut, Denmark, University of Würzburg, Germany and Campden Food and Drink Association, United Kingdom. Stock cultures were stored at -80°C in 4% (w/V) glycerol, 0.5% (w/V) glucose, and 2.0% (w/V) skimmed milk powder. The bacteria were grown in Brain Heart Infusion (BHI) broth (Oxoid, CM0225), Tryptone Soy Broth (TSB) (Oxoid, CM129), and cation-adjusted Mueller-Hinton II Broth (MHB) (Becton Dickinson, 212322) adjusted to pH 7.4. To avoid unspecific binding of host defense peptides to plastic ware and agar, all MIC determinations were carried out using polypropylene plastic ware and radial diffusion assays were carried out in MHB supplemented with 1% agarose (Invitrogen, 15510-027) as gelling agent.
(§2) Protamine was purchased from Sigma (P4020-5G). Plectasin, novicidin, and novispirin G10 were supplied by Novozymes A/S. Recombinant HBD-3 was purchased from PeproTech (300-52).
(§3) The strain collection was tested for sensitivity to protamine, plectasin, novicidin, and novispirin G10 by determining their minimal inhibitory concentration (MIC) using a microbroth dilution method. Colonies from a BHI agar plate incubated overnight were suspended in MHB pH 7.4 to a turbidity of 0.11–0.12 at 546 nm (approx. 1.0 × 10^8 CFU/ml) and diluted in MHB to a concentration of 5.0 × 10^5 CFU/ml. 90 μl of bacterial suspension was incubated with 10 μl of peptide solution in polypropylene 96-well plates (Nunc, 442587) for 18–24 h at 37°C. The peptide solutions were made fresh on the day of assay and diluted two-fold. The range of concentrations assayed were 0.031–32 μg/ml for novicidin, 0.125–128 μg/ml for protamine and novispirin G10, and 0.25–256 μg/ml for plectasin. MIC was the lowest peptide concentration at which visual growth was inhibited. The minimum bactericidal concentration (MBC) values were determined by plating l0 μl samples from wells with no visible growth onto BHI agar plates. MBC was the lowest concentration of each peptide of which 99.9% reduction of the initial inoculum was observed.

[2] = tested on: Listeria monocytogenes; assay: as above; type: cell-based; conditions: 37°C; for MIC values against L. monocytogenes (range over strains): range over 25 strains, MHB pH 7.4, 18–24 h; for MIC: 18–24 h
Method: as §1, §2, §3

[3] = tested on: L. monocytogenes and S. aureus; assay: Minimum bactericidal concentration (MBC), plating from MIC wells; type: cell-based, Listeria monocytogenes, Staphylococcus aureus; conditions: 99.9% reduction of initial inoculum; 10 μl from wells with no visible growth plated on BHI agar
Method: as §3

[4] = strain 796, MHB pH 7.4, 5.0 × 10^5 CFU/ml
[5] = strain 2148-jvi, MHB pH 7.4, 5.0 × 10^5 CFU/ml
[6] = strain 8325-4 (wildtype), MHB pH 7.4, 5.0 × 10^5 CFU/ml
[7] = strain 14943, MHB pH 7.4, 5.0 × 10^5 CFU/ml
[8] = strain 15033, MHB pH 7.4, 5.0 × 10^5 CFU/ml
[9] = strain B29997, MHB pH 7.4, 5.0 × 10^5 CFU/ml
[10] = strain B31369, MHB pH 7.4, 5.0 × 10^5 CFU/ml
[11] = strain J15033, MHB pH 7.4, 5.0 × 10^5 CFU/ml
[12] = strain K3-B2, MHB pH 7.4, 5.0 × 10^5 CFU/ml
[13] = strain KES 439, MHB pH 7.4, 5.0 × 10^5 CFU/ml
[14] = strain KES 626, MHB pH 7.4, 5.0 × 10^5 CFU/ml
[15] = strain KES 735, MHB pH 7.4, 5.0 × 10^5 CFU/ml
[16] = strain KES 855, MHB pH 7.4, 5.0 × 10^5 CFU/ml
[17] = strain Sa113 (wildtype), MHB pH 7.4, 5.0 × 10^5 CFU/ml
[18] = strain ΔdltA (Sa113 dltA ins), MHB pH 7.4, 5.0 × 10^5 CFU/ml
[19] = strain ΔmprF (Sa113 mprF del), MHB pH 7.4, 5.0 × 10^5 CFU/ml
[20] = strain 2275 (EGD dps del), MHB pH 7.4, 5.0 × 10^5 CFU/ml
[21] = strain 2307 (EGD resD del), MHB pH 7.4, 5.0 × 10^5 CFU/ml
[22] = strain 2315 (EGD sigB del), MHB pH 7.4, 5.0 × 10^5 CFU/ml
[23] = strain 2317 (EGD prfA del), MHB pH 7.4, 5.0 × 10^5 CFU/ml
[24] = strain 2374 (EGD perR ins), MHB pH 7.4, 5.0 × 10^5 CFU/ml
[25] = strain 2375 (EGD perR del), MHB pH 7.4, 5.0 × 10^5 CFU/ml
[26] = strain 4239, MHB pH 7.4, 5.0 × 10^5 CFU/ml
[27] = strain 4446, MHB pH 7.4, 5.0 × 10^5 CFU/ml
[28] = strain 4459, MHB pH 7.4, 5.0 × 10^5 CFU/ml
[29] = strain 4666, MHB pH 7.4, 5.0 × 10^5 CFU/ml
[30] = strain 6895, MHB pH 7.4, 5.0 × 10^5 CFU/ml
[31] = strain 7291, MHB pH 7.4, 5.0 × 10^5 CFU/ml
[32] = strain 7418, MHB pH 7.4, 5.0 × 10^5 CFU/ml
[33] = strain EGD (wildtype), MHB pH 7.4, 5.0 × 10^5 CFU/ml
[34] = strain H13-1, MHB pH 7.4, 5.0 × 10^5 CFU/ml
[35] = strain LO28 (wildtype), MHB pH 7.4, 5.0 × 10^5 CFU/ml
[36] = strain La22, MHB pH 7.4, 5.0 × 10^5 CFU/ml
[37] = strain La111, MHB pH 7.4, 5.0 × 10^5 CFU/ml
[38] = strain M103-1, MHB pH 7.4, 5.0 × 10^5 CFU/ml
[39] = strain N53-1, MHB pH 7.4, 5.0 × 10^5 CFU/ml
[40] = strain No40-1, MHB pH 7.4, 5.0 × 10^5 CFU/ml
[41] = strain O57, MHB pH 7.4, 5.0 × 10^5 CFU/ml
[42] = strain R479a, MHB pH 7.4, 5.0 × 10^5 CFU/ml
[43] = strain Scott A, MHB pH 7.4, 5.0 × 10^5 CFU/ml
[44] = strain V518a, MHB pH 7.4, 5.0 × 10^5 CFU/ml

protamine
8 mg/L: MIC [1, 18] | MIC [1, 19] | MIC [2, 21] | MIC [2, 22] | MIC [2, 29] | MIC [2, 33] | MIC [2, 35] | MIC [2, 37]
32 mg/L: MIC [1, 8] | MIC [1, 13] | MIC [2, 24] | MIC [2, 25] | MIC [2, 26] | MIC [2, 31] | MIC [2, 32] | MIC [2, 38] | MIC [2, 44]
16 mg/L: MIC [1, 4] | MIC [1, 5] | MIC [1, 6] | MIC [1, 7] | MIC [1, 9] | MIC [1, 10] | MIC [1, 11] | MIC [1, 12] | MIC [1, 14] | MIC [1, 15] | MIC [1, 16] | MIC [1, 17] | MIC [2, 20] | MIC [2, 23] | MIC [2, 27] | MIC [2, 28] | MIC [2, 30] | MIC [2, 34] | MIC [2, 36] | MIC [2, 39] | MIC [2, 40] | MIC [2, 41] | MIC [2, 42] | MIC [2, 43]
8 to 32 mg/L: MIC values against S. aureus (range over strains) [1] | MIC values against L. monocytogenes (range over strains) [2]

novispirin G10
128 mg/L: MIC [1, 4] | MIC [1, 6] | MIC [1, 8] | MIC [1, 9] | MIC [1, 11] | MIC [1, 12] | MIC [1, 13] | MIC [1, 15] | MIC [1, 17] | MIC [2, 31] | MIC [2, 41]
16 mg/L: MIC [2, 35]
32 mg/L: MIC [2, 21] | MIC [2, 24] | MIC [2, 25] | MIC [2, 28] | MIC [2, 37] | MIC [2, 39] | MIC [2, 43]
8 mg/L: MIC [1, 19]
96 mg/L: MIC [2, 30]
64 mg/L: MIC [1, 5] | MIC [1, 14] | MIC [1, 16] | MIC [2, 20] | MIC [2, 22] | MIC [2, 23] | MIC [2, 26] | MIC [2, 27] | MIC [2, 29] | MIC [2, 32] | MIC [2, 33] | MIC [2, 34] | MIC [2, 36] | MIC [2, 38] | MIC [2, 40] | MIC [2, 42] | MIC [2, 44]
identical to the MICs: minimum bactericidal concentrations (MBC) [3]
2 mg/L: MIC [1, 18]
256 mg/L: MIC [1, 10]

novicidin
6 mg/L: MIC [1, 4] | MIC [1, 17]
1 mg/L: MIC [1, 19]
8 mg/L: MIC [1, 6] | MIC [1, 7] | MIC [1, 8] | MIC [1, 11] | MIC [2, 29] | MIC [2, 31] | MIC [2, 44]
0.5 mg/L: MIC [1, 18]
12 mg/L: MIC [1, 10]
4 mg/L: MIC [1, 5] | MIC [1, 9] | MIC [1, 12] | MIC [1, 13] | MIC [1, 14] | MIC [1, 15] | MIC [1, 16] | MIC [2, 20] | MIC [2, 22] | MIC [2, 23] | MIC [2, 24] | MIC [2, 25] | MIC [2, 26] | MIC [2, 27] | MIC [2, 28] | MIC [2, 30] | MIC [2, 32] | MIC [2, 33] | MIC [2, 34] | MIC [2, 36] | MIC [2, 37] | MIC [2, 38] | MIC [2, 40] | MIC [2, 41] | MIC [2, 42] | MIC [2, 43]
2 mg/L: MIC [2, 21] | MIC [2, 35] | MIC [2, 39]
0.5 to 12 mg/L: MIC values against S. aureus (range over strains) [1]
2 to 8 mg/L: MIC values against L. monocytogenes (range over strains) [2]
identical to the MICs: minimum bactericidal concentrations (MBC) [3]
